Here are results for five compounds from PMC11204760, “New Cyclic Pentapeptides from the Mangrove-Derived Aspergillus fumigatus GXIMD 03099” (Marine Drugs, 2024).

The conditions of experiment [1]: cited from earlier work. An excerpt:
(§1) Cyclic pentapeptides, a subclass of cyclic peptides, are usually constructed by five amino acid residues. To date, about 60 cyclic pentapeptides have been characterized. Among them, avellanins A–C were exclusively found in Hamigera avellanea, Hamigera ingelheimensis, and Aspergillus petrakii, respectively. […] During our continuing efforts to identify new bioactive metabolites from mangrove-derived fungi [[20],[21],[ ...

The next experiment has as its system quorum-sensing. Conditions: cited from earlier work.
Excerpt: as §1

Experiment [2] concerns Vibrio harveyi (ATCC 14126). It counts as cell-based. The following applies: V. harveyi ATCC 14126, microplate assay; chloromycetin positive control. As for the experimental part:
Antibacterial activity was determined against nine pathogenic bacteria, including six Gram-positive bacteria—Methicillin-resistant Staphylococcus aureus (ATCC 43300), […], Staphylococcus albus (ATCC 8799), Staphylococcus aureus (ATCC 6538), Bacillus subtilis (ATCC 21332), and […] —and three Gram-negative bacteria—Vibrio parahaemolyticus (ATCC 17802), V. alginolyticus (ATCC 17749), and V. harveyi (ATCC 14126)—by the microplate assay method. Chloromycetin was used as the positive control.

Experiment [3] concerns newly hatched larvae of Culex quinquefasciatus. Put plainly: Insecticidal activity against newly hatched Culex quinquefasciatus larvae. It counts as in vivo. The following applies: 25 ± 1 °C, 80% relative humidity, dead larvae recorded on 2nd, 4th, 6th and 8th days, two sets of replicates, azadirachtin positive control. As for the experimental part:
The insecticidal activity against Culex quinquefasciatus larvae was evaluated according to methods reported in the literature. Newly hatched larvae were housed at 25 ± 1 °C and 80% relative humidity. Two sets of replicates were set up with dimethyl sulfoxide as a negative control, azadirachtin as a positive control, and artificial feed as a blank control. The number of dead larvae was recorded on 2nd, 4th, 6th, and 8th days after treatment.

Converted amounts (≈) assume the structure as drawn. Where a SMILES comes first, the peptide text is derived from it. [ ]: non-standard residue; d: D form. dNMeF = CN[C@H](Cc1ccccc1)C(=O)O; Pip = O=C(O)[C@@H]1CCCCN1; 2Abz = Nc1ccccc1C(=O)O; Abu = CC[C@H](N)C(=O)O

Regarding “L-Pro-Ant-L-Ile-D-Ala-N-Me-D-Phe (head to tail) [compound 5, avellanin A, known cyclic pentapeptide isolated from the fungus]”, the “effect on blood pressure” value in experiment [1] was “elevates blood pressure”.
For the compound avellanin C, the quorum-sensing inhibitory activity entry in the experiment on quorum-sensing is “exhibits quorum-sensing inhibitory activity”.
As usually defined, the MIC is the smallest concentration in the dilution series that meets the test's criterion for growth inhibition. A higher MIC goes with weaker potency. Compound `CC[C@@H]1NC(=O)[C@@H](C)NC(=O)[C@@H](Cc2ccccc2)N(C)C(=O)[C@@H]2CCCN2C(=O)c2ccccc2NC1=O` [compound 4, avellanin G] (cyclo(P[dNMeF][dA][Abu][2Abz])) yielded an MIC in experiment [2] of 5.85 µM (≈ 3.12 µg/mL).
For the compound avellanin B [compound 6], the “effect on activity of antineoplastic drugs” value in experiment [1] is “improves the activity of antineoplastic drugs”.
With `CC[C@H](C)[C@@H]1NC(=O)[C@@H](C)NC(=O)[C@@H](Cc2ccccc2)N(C)C(=O)[C@@H]2CCCCN2C(=O)c2ccccc2NC1=O` [compound 2, avellanin E] (cyclo([Pip][dNMeF][dA]I[2Abz])), the “LC50, insecticidal activity” value in experiment [3] is on record as 86.6 µM.
